Experimental data from US12303497B2, “Anti-androgens for the treatment of metastatic castration-sensitive prostate cancer” (priority 2019, dated 2025).

Test system: patients with metastatic castration-sensitive prostate cancer (mCSPC)

Question: `CNC(=O)c1ccc(N2C(=S)N(c3cnc(C#N)c(C(F)(F)F)c3)C(=O)C23CCC3)cc1F` [Apalutamide, 4-[7-(6-cyano-5-trifluoromethylpyridin-3-yl)-8-oxo-6-thioxo-5,7-diazaspiro[3.4]oct-5-yl]-2-fluoro-N-methylbenzamide] was tested. Which “AE leading to dose interruption: Hyponatremia” value (All Grades) did it give?
Answer: The value was 1 (0.2) no. (%).

Question: What about the “AE leading to dose interruption: Infections” value (All Grades) of the same compound?
Answer: Its value is 6 (1.1) no. (%).

Question: What about the “AE leading to dose interruption: Influenza-like illness” value (All Grades) of the same compound?
Answer: The value was 1 (0.2) no. (%).

Question: What about the “AE leading to dose interruption: Insomnia” value (All Grades) of the same compound?
Answer: The value was 3 (0.6) no. (%).

Question: What about the “AE leading to dose interruption: Ischemic cardiac events” value (All Grades) of the same compound?
Answer: The value was 1 (0.2) no. (%).

Question: What about the “AE leading to dose interruption: Large intestinal ulcer perforation” value (All Grades) of the same compound?
Answer: Its value is 1 (0.2) no. (%).

Question: And the “AE leading to dose interruption: Mental status changes” value (All Grades)?
Answer: Its value is 1 (0.2) no. (%).

Question: What about the “AE leading to dose interruption: Muscular weakness” value (All Grades) of the same compound?
Answer: The value was 1 (0.2) no. (%).

Question: And the “AE leading to dose interruption: Musculoskeletal stiffness” value (All Grades)?
Answer: Its value is 0 no. (%).

Question: And the “AE leading to dose interruption: Nausea” value (All Grades)?
Answer: The value was 1 (0.2) no. (%).

Question: And the “AE leading to dose interruption: Neutropenia” value (All Grades)?
Answer: The value was 2 (0.4) no. (%).

Question: And the “AE leading to dose interruption: New cancer neoplasm” value (All Grades)?
Answer: Its value is 3 (0.6) no. (%).

Question: What about the “AE leading to dose interruption: Osteoarthritis” value (All Grades) of the same compound?
Answer: The value was 0 no. (%).

Question: What about the “AE leading to dose interruption: Osteoporosis” value (All Grades) of the same compound?
Answer: The value was 1 (0.2) no. (%).

Question: And the “AE leading to dose interruption: Pain (grouped term)” value (All Grades)?
Answer: The value was 9 (1.7) no. (%).

Question: And the “AE leading to dose interruption: Pathological fracture” value (All Grades)?
Answer: Its value is 0 no. (%).

Question: What about the “AE leading to dose interruption: Peripheral edema” value (All Grades) of the same compound?
Answer: The value was 1 (0.2) no. (%).

Question: What about the “AE leading to dose interruption: Peripheral swelling” value (All Grades) of the same compound?
Answer: Its value is 0 no. (%).

Question: What about the “AE leading to dose interruption: Proctalgia” value (All Grades) of the same compound?
Answer: Its value is 1 (0.2) no. (%).

Question: And the “AE leading to dose interruption: Pyrexia” value (All Grades)?
Answer: The value was 3 (0.6) no. (%).

Question: And the “AE leading to dose interruption: Rash (grouped term)” value (All Grades)?
Answer: The value was 44 (8.4) no. (%).

Question: What about the “AE leading to dose interruption: Renal injury” value (All Grades) of the same compound?
Answer: Its value is 0 no. (%).

Question: What about the “AE leading to dose interruption: Rheumatoid arthritis” value (All Grades) of the same compound?
Answer: The value was 1 (0.2) no. (%).

Question: And the “AE leading to dose interruption: Seizure” value (All Grades)?
Answer: Its value is 1 (0.2) no. (%).

Question: And the “AE leading to dose interruption: Spinal cord compression” value (All Grades)?
Answer: The value was 1 (0.2) no. (%).

Question: And the “AE leading to dose interruption: Stomatitis” value (All Grades)?
Answer: The value was 1 (0.2) no. (%).

Question: And the “AE leading to dose interruption: Subarachnoid hematoma” value (All Grades)?
Answer: The value was 1 (0.2) no. (%).

Question: What about the “AE leading to dose interruption: Subarachnoid hemorrhage” value (All Grades) of the same compound?
Answer: The value was 1 (0.2) no. (%).

Question: And the “AE leading to dose interruption: Subdural hemorrhage” value (All Grades)?
Answer: The value was 0 no. (%).

Question: And the “AE leading to dose interruption: Syncope” value (All Grades)?
Answer: Its value is 1 (0.2) no. (%).

Question: And the “AE leading to dose interruption: Thrombocytopenia” value (All Grades)?
Answer: Its value is 1 (0.2) no. (%).

Question: What about the “AE leading to dose interruption: Tongue ulceration” value (All Grades) of the same compound?
Answer: The value was 1 (0.2) no. (%).

Question: And the “AE leading to dose interruption: Urethral stenosis” value (All Grades)?
Answer: The value was 0 no. (%).

Question: And the “AE leading to dose interruption: Urinary incontinence” value (All Grades)?
Answer: Its value is 1 (0.2) no. (%).

Question: What about the “AE leading to dose interruption: Urinary retention” value (All Grades) of the same compound?
Answer: Its value is 2 (0.4) no. (%).

Question: And the “AE leading to dose interruption: Urinary tract obstruction” value (All Grades)?
Answer: Its value is 1 (0.2) no. (%).

Question: And the “AE leading to dose interruption: Vertigo” value (All Grades)?
Answer: The value was 1 (0.2) no. (%).

Question: And the “AE leading to dose interruption: Vomiting” value (All Grades)?
Answer: Its value is 3 (0.6) no. (%).

Question: What about the “AE leading to dose interruption: Weight increased” value (All Grades) of the same compound?
Answer: Its value is 0 no. (%).

Question: And the “AE leading to dose reduction: Aspartate aminotransferase or alanine aminotransferase increased” value (All Grades)?
Answer: Its value is 0 no. (%).

Question: What about the “AE leading to dose reduction: Asthenia” value (All Grades) of the same compound?
Answer: Its value is 0 no. (%).

Question: And the “AE leading to dose reduction: Cognitive disorder” value (All Grades)?
Answer: Its value is 1 (0.2) no. (%).

Question: What about the “AE leading to dose reduction: Dehydration” value (All Grades) of the same compound?
Answer: The value was 1 (0.2) no. (%).

Question: And the “AE leading to dose reduction: Fatigue” value (All Grades)?
Answer: The value was 2 (0.4) no. (%).

Question: And the “AE leading to dose reduction: General physical health deterioration” value (All Grades)?
Answer: Its value is 1 (0.2) no. (%).

Question: What about the “AE leading to dose reduction: Headache” value (All Grades) of the same compound?
Answer: The value was 1 (0.2) no. (%).

Question: And the “AE leading to dose reduction: Hot flush” value (All Grades)?
Answer: Its value is 1 (0.2) no. (%).

Question: And the “AE leading to dose reduction: Hypertension” value (All Grades)?
Answer: Its value is 1 (0.2) no. (%).

Question: And the “AE leading to dose reduction: Lethargy” value (All Grades)?
Answer: The value was 0 no. (%).

Question: And the “AE leading to dose reduction: Neutropenia” value (All Grades)?
Answer: Its value is 2 (0.4) no. (%).

Question: What about the “AE leading to dose reduction: Pain” value (All Grades) of the same compound?
Answer: Its value is 1 (0.2) no. (%).

Question: And the “AE leading to dose reduction: Performance status decreased” value (All Grades)?
Answer: The value was 0 no. (%).

Question: And the “AE leading to dose reduction: Rash (grouped term)” value (All Grades)?
Answer: Its value is 28 (5.3) no. (%).

Question: What about the “AE leading to dose reduction: Vertigo” value (All Grades) of the same compound?
Answer: The value was 1 (0.2) no. (%).

Question: What about the “AE leading to dose reduction: Weight decreased” value (All Grades) of the same compound?
Answer: Its value is 1 (0.2) no. (%).

Question: What about the “AE of special interest: Fall” value (All Grades) of the same compound?
Answer: The value was 39 (7.4) no. (%).

Question: And the “AE of special interest: Fracture (grouped term)” value (All Grades)?
Answer: The value was 33 (6.3) no. (%).

Question: What about the “AE of special interest: Hypothyroidism (grouped term)” value (All Grades) of the same compound?
Answer: The value was 34 (6.5) no. (%).

Question: And the “AE of special interest: Rash (grouped term)” value (All Grades)?
Answer: The value was 142 (27.1) no. (%).

Question: And the “AE of special interest: Seizure (grouped term)” value (All Grades)?
Answer: Its value is 3 (0.6) no. (%).

Question: What about the “Patients with treatment-emergent adverse events leading to discontinuation” value (All Grades) of the same compound?
Answer: The value was 42 (8.0) no. (%).

Question: And the “Patients with treatment-emergent adverse events leading to dose reduction” value (All Grades)?
Answer: Its value is 37 (7.1) no. (%).

Question: And the “Patients with treatment-emergent events leading to dose interruption” value (All Grades)?
Answer: Its value is 104 (19.8) no. (%).

Question: And the “TEAE: Anemia” value (All Grades)?
Answer: Its value is 48 (9.2) no. (%).

Question: And the “TEAE: Arthralgia” value (All Grades)?
Answer: The value was 91 (17.4) no. (%).

Question: And the “TEAE: Asthenia” value (All Grades)?
Answer: Its value is 37 (7.1) no. (%).

Question: What about the “TEAE: Back pain” value (All Grades) of the same compound?
Answer: The value was 91 (17.4) no. (%).

Question: What about the “TEAE: Blood alkaline phosphatase increased” value (All Grades) of the same compound?
Answer: The value was 16 (3.1) no. (%).

Question: What about the “TEAE: Bone pain” value (All Grades) of the same compound?
Answer: The value was 34 (6.5) no. (%).

Question: And the “TEAE: Constipation” value (All Grades)?
Answer: Its value is 47 (9.0) no. (%).

Question: What about the “TEAE: Fatigue” value (All Grades) of the same compound?
Answer: Its value is 103 (19.7) no. (%).

Question: What about the “TEAE: Hot flush” value (All Grades) of the same compound?
Answer: Its value is 119 (22.7) no. (%).

Question: And the “TEAE: Hypertension” value (All Grades)?
Answer: The value was 93 (17.7) no. (%).

Question: What about the “TEAE: Pain in extremity” value (All Grades) of the same compound?
Answer: Its value is 64 (12.2) no. (%).

Question: And the “TEAE: Pruritus” value (All Grades)?
Answer: Its value is 56 (10.7) no. (%).

Question: And the “TEAE: Rash generalized” value (All Grades)?
Answer: The value was 34 (6.5) no. (%).

Question: And the “TEAE: Urinary retention” value (All Grades)?
Answer: The value was 13 (2.5) no. (%).

Question: What about the “TEAE: Weight increased” value (All Grades) of the same compound?
Answer: The value was 54 (10.3) no. (%).

Question: And the “AE leading to discontinuation: Alanine aminotransferase increased” value (Grade ≥3)?
Answer: The value was 0 no. (%).

Question: What about the “AE leading to discontinuation: Anxiety” value (Grade ≥3) of the same compound?
Answer: The value was 0 no. (%).

Question: And the “AE leading to discontinuation: Atrial fibrillation” value (Grade ≥3)?
Answer: Its value is 1 (0.2) no. (%).

Question: What about the “AE leading to discontinuation: Cardiac failure” value (Grade ≥3) of the same compound?
Answer: The value was 0 no. (%).

Question: What about the “AE leading to discontinuation: Cardio-respiratory arrest” value (Grade ≥3) of the same compound?
Answer: Its value is 1 (0.2) no. (%).

Question: And the “AE leading to discontinuation: Cardiogenic shock” value (Grade ≥3)?
Answer: Its value is 1 (0.2) no. (%).

Question: And the “AE leading to discontinuation: Cerebrovascular disorder” value (Grade ≥3)?
Answer: The value was 1 (0.2) no. (%).

Question: And the “AE leading to discontinuation: Cognitive disorder” value (Grade ≥3)?
Answer: Its value is 0 no. (%).

Question: What about the “AE leading to discontinuation: Dehydration” value (Grade ≥3) of the same compound?
Answer: The value was 0 no. (%).

Question: What about the “AE leading to discontinuation: Dyspnea” value (Grade ≥3) of the same compound?
Answer: Its value is 0 no. (%).

Question: And the “AE leading to discontinuation: Euphoric mood” value (Grade ≥3)?
Answer: The value was 0 no. (%).

Question: And the “AE leading to discontinuation: Fatigue” value (Grade ≥3)?
Answer: Its value is 1 (0.2) no. (%).

Question: And the “AE leading to discontinuation: Hot flush” value (Grade ≥3)?
Answer: Its value is 0 no. (%).

Question: What about the “AE leading to discontinuation: Hypothermia” value (Grade ≥3) of the same compound?
Answer: Its value is 0 no. (%).

Question: And the “AE leading to discontinuation: Infections” value (Grade ≥3)?
Answer: The value was 1 (0.2) no. (%).

Question: And the “AE leading to discontinuation: Intracranial hemorrhage” value (Grade ≥3)?
Answer: Its value is 0 no. (%).

Question: What about the “AE leading to discontinuation: Ischemic cardiac events” value (Grade ≥3) of the same compound?
Answer: Its value is 2 (0.4) no. (%).

Question: What about the “AE leading to discontinuation: Large intestinal ulcer perforation” value (Grade ≥3) of the same compound?
Answer: Its value is 1 (0.2) no. (%).
